From PubChem BioAssay (NCI)
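Interpolation was linear, between the two tested concentrations surrounding the appropriate level; five concentrations were tested over 48 hours in 96-well plates. The concentration for 50% growth inhibition is given as GI50. Definition used: TGI = concentration required for complete inhibition of growth.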

Experiments:
Assay in all cases: growth of human tumour cells (NCI), 48 h
HCT-15 colon = tested on: HCT-15 colon
DU-145 prostate = tested on: DU-145 prostate
OVCAR-5 ovarian = tested on: OVCAR-5 ovarian
HOP-62 NSCLC = tested on: HOP-62 NSCLC
A549 NSCLC = tested on: A549 NSCLC
TK-10 renal = tested on: TK-10 renal
OVCAR-4 ovarian = tested on: OVCAR-4 ovarian
SR leukemia = tested on: SR leukemia
SW-620 colon = tested on: SW-620 colon
SK-OV-3 ovarian = tested on: SK-OV-3 ovarian

SMILES | GI50 (HCT-15 colon) | TGI (HCT-15 colon) | GI50 (DU-145 prostate) | TGI (DU-145 prostate) | GI50 (OVCAR-5 ovarian) | TGI (OVCAR-5 ovarian) | GI50 (HOP-62 NSCLC) | TGI (HOP-62 NSCLC) | GI50 (A549 NSCLC) | TGI (A549 NSCLC) | GI50 (TK-10 renal) | TGI (TK-10 renal) | GI50 (OVCAR-4 ovarian) | TGI (OVCAR-4 ovarian) | GI50 (SR leukemia) | TGI (SR leukemia) | GI50 (SW-620 colon) | TGI (SW-620 colon) | GI50 (SK-OV-3 ovarian) | TGI (SK-OV-3 ovarian)
O=c1[nH]c2nc(NC3CCOCC3)ncc2cc1Oc1ccc(F)cc1F | > 25 µM | > 25 µM | > 25 µM | > 25 µM | > 25 µM | > 25 µM | > 25 µM | > 25 µM | > 25 µM | > 25 µM | > 25 µM | > 25 µM | > 25 µM | > 25 µM | > 25 µM | > 25 µM | > 25 µM | > 25 µM | > 25 µM | > 25 µM
Cc1nn2c(/C=C3/C(=O)Nc4cc(Cl)ccc43)c(-c3ccccc3)nc2s1 | 4.79 µM | > 100 µM | 4.02 µM | 18.2 µM | > 100 µM | > 100 µM | 4.4 µM | 17.9 µM | 3.28 µM | 14.9 µM | 2.34 µM | 4.14 µM | 1.59 µM | 3.39 µM | 3.09 µM | > 100 µM | 3 µM | > 100 µM | 14.3 µM | > 100 µM
Cc1cc(N=C2C=C(Br)C(=O)C(Br)=C2)cc(CN(CC(=O)O)CC(=O)O)c1O | – | > 100 µM | – | > 100 µM | – | > 100 µM | – | > 100 µM | – | > 100 µM | – | – | – | > 100 µM | – | > 100 µM | – | > 100 µM | – | > 100 µM
COc1cc2c(cc1OCCCCCCN1CCN(CC(=O)Nc3ccc(Cl)cc3C(=O)c3ccccc3Cl)CC1)N=CC1CCCN1C2=O (centres undefined) | 0.518 µM | 1.18 µM | 0.254 µM | 0.715 µM | 0.567 µM | 1.34 µM | 0.146 µM | 0.294 µM | 0.251 µM | 0.765 µM | 0.497 µM | 1.17 µM | 0.419 µM | 1.25 µM | 0.0447 µM | 0.194 µM | 0.211 µM | 0.591 µM | 0.494 µM | 1.17 µM
c1cncc(CNCc2cccnc2)c1 | – | > 100 µM | – | > 100 µM | – | > 100 µM | – | > 100 µM | – | > 100 µM | – | > 100 µM | – | > 100 µM | – | > 100 µM | – | > 100 µM | – | > 100 µM
O=c1cc(N/N=C/c2ccc(F)cc2)c2cc(Cl)ccc2[nH]1 | 19.9 µM | > 100 µM | 33.9 µM | > 100 µM | 21.6 µM | 58.9 µM | 20.7 µM | > 100 µM | 23.5 µM | > 100 µM | 47.1 µM | > 100 µM | – | – | 24.5 µM | 85.6 µM | 26.8 µM | > 100 µM | 20.1 µM | 83.4 µM
Cc1ccc(S(=O)(=O)c2nc(-c3ccccc3)oc2S(C)=O)cc1 (centres undefined) | – | – | 1.25 µM | 2.63 µM | 1.85 µM | 3.47 µM | 6.87 µM | 20.3 µM | 5.23 µM | 18.5 µM | 1.45 µM | 2.79 µM | 1.91 µM | 3.65 µM | 1.67 µM | 7.7 µM | 1.47 µM | 3.48 µM | 15.3 µM | 28.6 µM
COc1ccc(CCc2cc(OC)cc(OC)c2)cc1 | – | > 100 µM | – | – | – | > 100 µM | – | > 100 µM | – | > 100 µM | – | > 100 µM | – | > 100 µM | – | > 100 µM | – | > 67.3 µM | – | > 100 µM
